Our source for the outcome, EC50 and IC50 values is PubChem BioAssay AID179 (DTP/NCI, 2004).

“And” between values parts separate entries of the source, which are not always exact repeats. Equal entries are not always repeated. The source made the active and inactive calls.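 The calls were made as follows: active = compounds giving half or more protection of infected cells from virus-caused growth loss, again on retest; inactive = the rest.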 Where a SMILES comes first, the peptide text is derived from it. The star is where a group is joined. Cbz = O=C(OCc1ccccc1)*; Boc = CC(C)(C)OC(=O)*; OBn = c1ccc(CO*)cc1

The assay concerns CEM cells HIV-1 protection, formazan growth assay. The assay can be described thus: NCI AIDS Antiviral Assay. The conditions noted are these: for IC50: measured here: growth of uninfected CEM cells. In a few lines: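 Human CEM cells, uninfected and HIV-1-infected, exposed to five drug concentrations; growth measured by soluble formazan assay and scored as percent protection from infection, with protecting compounds retested.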

For `C=Cc1nc(C#N)c(N)o1`, the result was inactive.

The term EC50 denotes the concentration needed to bring the measured effect to its halfway point. In general, IC50 refers to the concentration that gives 50% inhibition. A lower IC50 goes with inhibition by little substance. For the molecule `Cc1cn(C(Cc2ccccc2)OCCO)c(=O)[nH]c1=O` (stereo not given), the EC50 was over 200 µM and the IC50 is over 200 µM.

`COc1ccc2c(c1)CCc1cnoc1-2`: the EC50 was over 178 µM and the IC50 amounted to 110 µM.

As for `O=c1[nH]c(=O)n(COCc2ccccc2)c2ccccc12`, the EC50 was over 200 µM and the IC50 is 174 µM.

As to `CCn1c2ccccc2c2cc(N=C3C(=O)N(C)c4ccccc43)ccc21`, the EC50 is over 200 µM and the IC50 amounted to 10.7 µM.

`NC(=O)c1ncn2c1NC(=O)CC2`: the result was inactive.

Regarding `N=C(N)SSC(=N)N`, the EC50 was 70.8 µM and the IC50 was over 100 µM.

For `C=CN1C(=O)OC[C@@H]1c1ccccc1`, the EC50 is over 513 µM and the IC50 was over 513 µM.

Consider `O=C1c2cc(Br)ccc2OC2CCON12` (stereo not given), for which the outcome was inactive.

Turning to `OCc1ncccc1O`, the EC50 is over 200 µM and the IC50 was over 200 µM.

Turning to `COc1ccc(N[C@H]([C@@H](c2ccccc2)S(=O)c2ccc(C)cc2)C(F)(F)F)cc1` (stereo not given in full), the EC50 was over 200 µM and the IC50 worked out at 34.7 µM.

`Cc1nc(-c2nc(C)c(C(=O)NN(C)C)s2)sc1C(=O)NN(C)C`: the EC50 is over 70.8 µM and the IC50 is over 70.8 µM.

Consider `CC(=O)C1=C(C)N2C(=NC3=C(CCc4ccccc43)C2c2cccc(Br)c2)S1` (stereo not given), for which the EC50 is over 200 µM and the IC50 is 81.3 µM.

Regarding `CC(=O)Nc1ccccc1/C=C\c1ccccn1`, the EC50 was over 1050 µM and the IC50 was over 1050 µM.

For the molecule `CCCCCC(=O)N1SC(NC(=O)OC)=Nc2ccccc21`, the EC50 is over 155 µM and the IC50 worked out at 8.32 µM.

For `CC(C)CCCC(C)[C@H]1CC[C@H]2[C@@H]3CC[C@H]4C[C@@H](CCCC(c5cc(Cl)c(OCc6ccc(C(=O)O)cc6)c(C(=O)O)c5)c5cc(Cl)c(OCc6ccc(C(=O)O)cc6)c(C(=O)O)c5)CC[C@]4(C)[C@H]3CC[C@]12C` (stereo not given in full), the EC50 is 20.4 µM and 3.39 µM; the IC50 is > 200 µM and 20 µM.

As to `COC(=O)C1=C(/C=C/C(C)=O)NC(C)=C(C(=O)OC(C)C)C1c1ccccc1Cl` (stereo not given), the EC50 was over 200 µM and the IC50 came out at 0.575 µM.

On to `COC(=O)/C(C=O)=C/Sc1ccccc1`, for which the result was inactive.

On to `O=[N+]([O-])c1cccc2nnccc12`, for which the EC50 was over 200 µM and the IC50 is 22.9 µM.

As for `Cc1cc(C)c2c(c1)sc1n[nH]c(=S)n12`, the EC50 is over 63.1 µM and the IC50 is over 63.1 µM.

In the case of `CCOc1ccc(NC(=O)/C(CC(=O)c2sc(Nc3ccc(C)cc3)nc2C)=N\NC(N)=S)cc1`, the EC50 was over 200 µM and the IC50 was over 200 µM.

In the case of `COC(=O)C(CCCCNC(=O)OCc1ccccc1)NC(=O)C(CCC(=O)OCc1ccccc1)NC(=O)OC(C)(C)C` (stereo not given) (Boc-Glu(OBn)-Lys(Cbz)-OMe; configuration not given here), the EC50 is over 200 µM and the IC50 was over 200 µM.

For the molecule `COC1=NCN=C2SC=C(N)N=C12`, the EC50 was over 1070 µM and the 50% inhibitory concentration (IC50) is 562 µM.

Turning to `OCC1CCCC1O` (stereo not given), the result was inactive.

Regarding `Cc1ccc(S/C=C/C(=O)Nc2ccccc2)cc1`, the EC50 is over 37.2 µM; the IC50 is > 37.2 µM and 25.1 µM.

Regarding `Cc1cc2c(oc(=O)c3cc(C)sc32)s1`, the EC50 was over 42.7 µM and the IC50 is over 42.7 µM.

For the molecule `Cc1cc(C)c(-n2c(-c3ccccc3)cs/c2=N\N=C2C=C(C(C)(C)C)C(=O)C(C(C)(C)C)=C2)c(C)c1`, the EC50 is over 14.1 µM and the IC50 is over 14.1 µM.

In the case of `O=C(O)CCN(CCCN(CCC(=O)O)CCC(=O)O)CCC(=O)O`, the EC50 was over 575 µM and the IC50 amounted to 8.13 µM.

For `CC(C)(N=NC(C)(C)C(=O)NCCO)C(=O)NCCO`, the EC50 was over 200 µM and the IC50 is over 200 µM.

On to `Cc1cccc2c1C(=O)C(C1OC(=O)c3ccccc31)C2` (stereo not given), for which the EC50 is over 100 µM and the IC50 was over 100 µM.

As for `CCn1c(SCC(=O)NNC(=S)Nc2ccc(C)cc2)nc2ccccc2c1=O`, the EC50 was over 200 µM and the 50% inhibitory concentration (IC50) turned out to be 105 µM.

As for `CCCCN(CCC/C=C/OC)C(C#N)c1ccccc1` (stereo not given), the EC50 is over 871 µM and the IC50 is over 871 µM.

`CCOC(=O)c1nc2ccc(C(F)(F)F)cc2nc1Oc1ccc(C(=O)OC)cc1`: the EC50 was over 200 µM and the IC50 is over 200 µM.

As for `COC(=O)C(C(=O)C(=O)Nc1ccccc1C)c1nc2ccc([N+](=O)[O-])cc2[nH]c1=O` (stereo not given), the outcome was inactive.

For the molecule `COC(=O)/C=C/c1ccc2c(c1)CCC2`, the EC50 is over 200 µM and the IC50 is 6.92 µM.

In the case of `CC1c2ccccc2NC(=O)N1N1CCOCC1` (stereo not given), the EC50 was over 200 µM and the IC50 is over 200 µM.

`O=[N+]([O-])c1ccc(-c2noc(-c3ccc(Cl)cc3)c2C2=NCCCN2)cc1`: the EC50 is over 35.5 µM and the IC50 is over 35.5 µM.

For `CC(=O)NC(CCCNCc1ccccc1)C(=O)NCc1ccccc1` (stereo not given), the EC50 is over 708 µM and the IC50 was over 708 µM.

On to `CC[N+](C)(C)Cc1ccccc1Br`, for which the EC50 is over 200 µM and the IC50 came to 182 µM.

As to `COc1ccc(/C(=N/Nc2nc3ccccc3n2Cc2ccccc2)C(=O)O)cc1`, the EC50 was over 200 µM and the IC50 turned out to be 4.27 µM.

Turning to `COc1cc(C(=O)Nc2c3ccccc3nc3ccccc23)cc(OC)c1OC`, the EC50 was over 200 µM and the IC50 is over 200 µM.

In the case of `CCSc1nc(N)c2c(-c3ccccc3)c3c(nc2n1)CCC3`, the EC50 is over 100 µM and the IC50 is over 100 µM.

With `COc1ccc2c(c1)CCc1c-2n(CCN2CCCCC2)c2ccc(OC)cc12`, the EC50 was over 100 µM and the IC50 is over 100 µM.

Take `Oc1cc(-n2cccn2)c(O)cc1-n1cccn1`: the EC50 was over 77.6 µM and the IC50 turned out to be 14.1 µM.

As for `CCOC(=O)NNC(=O)NCCCCNC(=O)NNC(=O)OCC`, the EC50 was over 200 µM and the IC50 is over 200 µM.

As for `N#C/C(=C/n1c(=S)[nH]c2ccccc21)C(N)=O`, the EC50 is over 200 µM and the IC50 was over 200 µM.

Consider `CCN(CC)CC(=O)Nc1ccc(Cl)cc1Cc1ccccc1`, for which the EC50 was over 200 µM and the IC50 stood at 91.2 µM.

On to `CCCCCCCCC1C(C)c2c([nH]c3ccccc23)C2C(=O)N(c3ccccc3)C(=O)C21` (stereo not given), for which the outcome was inactive.

For the molecule `Cc1ccnc(NC(=O)Nc2cc(F)ccc2F)c1`, the EC50 was over 200 µM and the IC50 is over 200 µM.

As to `COC(=O)/C(C#N)=C/n1ccc(=O)[nH]c1=S`, the EC50 is over 200 µM and the IC50 is over 200 µM.

With `Cc1cc2c(c(S(=O)(=O)c3ccc(Cl)cc3[N+](=O)[O-])c1)NCCC2`, the EC50 was over 75.9 µM and the IC50 was 27.5 µM.
